{
  "source": "patent US20120316203A1",
  "about": "“Compositions and Methods for Inhibition of Cancers” (THE OHIO STATE UNIVERSITY RESEARCH FOUNDATION, priority 2009, published 2012)",
  "key": {"A2780 cells [1]": {"tested_on": "A2780 cells", "test": "Cell proliferation by clonogenic assay", "format": "cell-based, human", "conditions": "24 hours treatment, 7 days growth", "experimental": "Cell survival was assessed by clonogenic assay. Cells at […] confluence were trypsinized, rinsed, seeded onto 60-mm dishes (5×10^4 cells per dish), grown for 24 hours at 37° C., and treated afterward with H-4073 or HO-3867 for 24 hours. Nontreated cells served as controls. After treatment, the cells were washed twice with PBS, trypsinized, counted, and plated in 60-mm dishes in triplicate and incubated for an additional 7 days. The colonies were then stained with crystal violet (in ethyl alcohol) and counted using an automated colony counter (ColCount, Oxford Optronix). Each experiment was repeated at least five times."}, "A2780 cells [2]": {"tested_on": "A2780 cells", "test": "Cell-cycle analysis by flow cytometry", "format": "cell-based, human", "conditions": "6, 12, or 24 hours, versus nontreated control", "experimental": "Cells were treated with HO-3867 (10 μmol/L) for 24 hours, trypsinized, washed in PBS, and fixed in an ice-cold 75% ethanol/PBS solution. The DNA was labeled with propidium iodide. Cells were sorted by flow cytometry and cell cycle profiles were determined using ModFit LT software (Becton Dickinson).\nWe next examined whether the growth inhibition of A2780 cells by HO-3867 was caused by cell cycle arrest. Cells were treated with HO-3867 for 6, 12, or 24 hours; fixed; and cell cycle populations were determined by flow cytometry."}, "[3]": {"tested_on": "pSTAT3 (Tyr705 and Ser727) and phospho-JAK1 (Tyr1022/1023) in A2780 cells", "test": "Immunoblot and immunoprecipitation of JAK/STAT3 signaling", "format": "cell-based, human", "conditions": "10 or 20 μmol/L, 24 hours", "experimental": "(§1) Equal volumes of DMSO (0.1% v/v) were present in each treatment. Following treatment, the cell lysates were prepared in non-denaturing lysis buffer containing 10 mmol/L Tris-HCl (pH 7.4), 150 mmol/L NaCl, 1% Triton X-100, 1 mmol/L EDTA, 1 mmol/L EGTA, 0.3 mmol/L phenylmethyl-sulfonyl fluoride, 0.2 mmol/L sodium orthovanadate, 0.5% NP40, 1 μg/mL aprotinin, and 1 μg/mL leupetin. The lysates were centrifuged at 10,000×g for 20 minutes at 4° C. and the supernatant was separated. The protein concentration in the lysates was determined using a Pierce detergent-compatible protein assay kit. For Western blotting, 25 to 50 μg of protein lysate per sample were denatured in 2×SDS-PAGE sample buffer and subjected to SDS-PAGE on a 10% tris-glycine gel. The separated proteins were transferred to a polyvinylidene fluoride membrane and were blocked with 5% nonfat milk powder (w/v) in TBST (10 mmol/L Tris, 10 mmol/L NaCl, 0.1% Tween 20) for 1 hour at room temperature or overnight at 4° C. The membranes were then incubated with the primary antibodies. The bound antibodies were detected with horseradish peroxidase-labeled sheep anti-mouse IgG or horseradish peroxidase-labeled donkey anti-rabbit IgG using an enhanced chemiluminescence detection system (ECL Advanced kit). Protein expressions were determined using the Image Gauge v. 3.45 software."}, "[4]": {"tested_on": "Bcl-xL, Bcl-2, survivin, VEGF, and cyclin D1 in A2780 cells", "test": "Western blot of STAT3 target proteins", "format": "cell-based, human", "conditions": "10 and 20 μmol/L, 24-hour exposure", "experimental": "as §1, with “software. […]” for “software.”"}, "[5]": {"test": "Superoxide radical-scavenging by EPR (xanthine/xanthine oxidase, DEPMPO competition)", "conditions": "100 μM compound versus 1 mM DEPMPO", "experimental": "Electron paramagnetic resonance (EPR) spectroscopy was used to quantitatively determine the relative superoxide-scavenging ability of the DAPs in comparison with DEPMPO, a known superoxide scavenger. Superoxide radicals were generated using an aerated solution of PBS (pH 7.4) containing xanthine (0.2 mM), xanthine oxidase (0.02 U/ml), and diethylenetriamine pentaacetic acid (0.1 mM). The superoxide radicals (O2^−) generated by the xanhine-xanthine oxidase reaction were reacted with DEPMPO (1 mM) to form a paramagnetic adduct (DEPMPO-OOH), which was detected using X-band (9.8 GHz) EPR spectroscopy. In separate experimental groups, […], or SOD (500 U/ml) was added to the reaction mixture. […] The generation of the DEPMPO-OOH adduct was measured at 10 min after initiation of the reaction.\nBoth N-hydroxypyrroline and nitroxide have antioxidant properties including SOD- and catalase-mimetic activity. Therefore, we determined the superoxide radical-scavenging ability of DAPs using a competitive reaction in the presence of DEPMPO. Superoxide radicals were generated using an aerobic solution of xanthine and xanthine oxidase and detected as DEPMPO-OOH adduct by EPR spectroscopy. The DAP compounds (100 μM) were used to compete with 1 mM DEPMPO for the superoxide ions. SOD (4.2 μM) was used as a positive control."}, "[6]": {"tested_on": "A2780 xenograft tumor tissues", "test": "FAS/FAK and VEGF levels in xenograft tumor tissues (immunoblot, immunohistochemistry)", "format": "in vivo, BALB/c nude mice", "experimental": "A2780 cells (5×10^6 cells in 60 μl of PBS) were subcutaneously (s.c.) injected into the back of 6-week-old BALB/c nude mice from the National Cancer Institute. On the 5th day when the tumor size reached approximately 2 to 4 mm, the control groups was supplemented a normal diet (no treatment) while the experimental groups were treated using the DAP compounds mixed with the animal feed ([…]). The doses were chosen based on an initial dose-response study optimized to produce an observable effect on tumor growth. The tumor tissues were then subjected to immunoblotting and immunohistochemistry.\nTumor tissues were fixed in formalin and embedded in paraffin. Sections (6-μm thick) were obtained and used for hematoxylin and eosin staining. For immunofluorescence staining, the tissue sections (8-μm thick) were serially rehydrated in 100%, 95%, and 80% ethanol after deparaffinization with xylene. Slides were kept in steam for 30 min and then washed in PBS (pH 7.4) three times for 5 min each. Tissue sections were incubated with 2% goat serum and 5% bovine serum albumin in PBS to reduce nonspecific binding. The sections were then incubated for 4 h with an anti-mouse anti-FAS, or anti-VEGF. The sections were then incubated with secondary antibodies (1:1000 dilutions) conjugated to horseradish peroxidase (HRP)-labeled sheep anti-mouse IgG or HRP-labeled donkey anti-rabbit IgG (Amersham Pharmacia Biotech). The tissue slides were visualized using a Nikon fluorescence microscope."}, "[7]": {"conditions": "50 or 100 ppm in feed, dose-dependent"}},
  "data": [
    {"compound": "CC1(C)C=C(CN2C/C(=C\\c3ccc(F)cc3)C(=O)/C(=C/c3ccc(F)cc3)C2)C(C)(C)N1O", "note": "[HO-3867, 1-[(1-oxyl-2,2,5,5-tetramethyl-2,5-dihydro-1H-pyrrol-3-yl)methyl]-(3E,5E)-3,5-bis(4-fluorobenzylidene)piperidin-4-one]", "values": [
      {"measurement": "number of colonies (colony-forming ability)", "setting": "A2780 cells [1]", "result": "dose-dependent reduction in the number of colonies"},
      {"measurement": "percentages of the cell population in the G2-M and sub-G1 phases", "setting": "A2780 cells [2]", "result": "significantly higher"},
      {"measurement": "pSTAT3 (Tyr705 and Ser727) levels", "setting": "[3]", "result": "significantly decreased"},
      {"measurement": "phosphor-JAK1 (Tyr1022/1023)", "setting": "[3]; versus unexposed controls", "result": "substantial decrease"},
      {"measurement": "Bcl-xL, Bcl-2, survivin, and VEGF levels", "setting": "[4]", "result": "clear reduction"},
      {"measurement": "cyclin D1 level", "setting": "[4]", "result": "no significant change"},
      {"measurement": "diminution of the DEPMPO-OOH concentration", "setting": "[5]", "result": "−50", "unit": "%"},
      {"measurement": "SREBP1, MMP-2, and VEGF in xenografted tumor tissues", "setting": "[6]; [7]", "result": "clear down-regulation"},
      {"measurement": "expression of FAS and FAK in xenografted tumor tissues", "setting": "[6]; [7]", "result": "decreased expression"},
      {"measurement": "protein levels of FAS and VEGF by immunocytochemistry in tumor-bearing mice", "setting": "[6]; mouse, in vivo", "result": "significantly inhibited"}
    ]}
  ]
}
